Results reported in article PMC10101059, “Rational Design of Stapled Antimicrobial Peptides to Enhance Stability and In Vivo Potency against Polymicrobial Sepsis” (Microbiology Spectrum, 2023).
In brackets after ≈: the same amount, converted by molar mass. Bridge positions count the residues as written; N and C are the ends. Square brackets hold non-standard residues; d marks the D form. Peptide text beside a SMILES is read from it. R5 = C=CCCC[C@@](C)(N)C(=O)O

What was measured:
MDR A. baumannii 1033 = experiment: Checkerboard microdilution assay (FICI); format: cell-based, Acinetobacter baumannii; settings: for TP4-3 and meropenem combined MIC: MIC of each agent in combination
Method: (§1) The FICI was measured using a standard checkerboard microdilution assay ([57]). Two-fold dilutions of antibiotics were made across the x axis, and two-fold peptide dilutions were made across the y axis. Next, bacteria were added at 5 × 10^5 CFU/well (A. baumannii), followed by incubation at 37 ± 2°C for 16 to 20 h. FIC indices were calculated according to the following equations: FICI = FIC1 + FIC2; FIC1 = (MIC12 combined)/MIC1; FIC2 = (MIC12 combined)/MIC2. The combined efficacy was estimated as follows: FICI ≤ 0.5, synergistic; 0.5 to 1, additive; 1 to 2, indifferent; ≥2, antagonistic.

P. aeruginosae = experiment: microbe, parasite or virus in culture; format: cell-based, Pseudomonas aeruginosa; settings: for TP4-3 and meropenem combined MIC: MIC of each agent in combination
A. baumannii biofilm = experiment: Biofilm inhibition assay; format: cell-based, Acinetobacter baumannii; settings: 0.5× to 4× MIC
Method: (i) Biofilm inhibition assay. Fifty μL of 2 × 10^6 CFU/mL A. baumannii bacterial suspension was added to a 96-well plate. Then, 50 μL of peptide/drug (various concentrations) was added, and the plate was incubated for 24 h. The residual solution was removed, and wells were washed, followed by treatment with 100% methanol for 15 min at room temperature. The methanol was then removed, and the wells were allowed to dry at room temperature. Next, the wells were incubated with 100 μL of 0.02% crystal violet for 30 min. After the incubation, the wells were washed with distilled water and dried for an appropriate length of time. Finally, 100 μL of 33% acetic acid was added to the wells for 1 h, followed by reading the absorbance at 595 nm ([55]).

Pseudomonas aeruginosa = experiment: microbe, parasite or virus in culture; format: cell-based
Method: (§2) The antimicrobial assay was performed according to a modified National Committee for Clinical Laboratory Standards (NCCLS) protocol ([41], [42]). Briefly, 5 × 10^5 CFU/mL bacterial cells were treated with various peptide concentrations and incubated at 37 ± 2°C for 16 to 20 h. The lowest concentration with clear wells was recorded as the MIC for each test molecule. The clear wells were further plated in Mueller-Hinton agar (MHA) plates, followed by incubation overnight at 37 ± 2°C. After plating, the lowest concentration at which no growth was observed was recorded as the MBC. For the serum sensitivity assay, the antimicrobial activity of the peptides was tested in medium containing 50% human serum ([43], [44]).

Escherichia coli = experiment: microbe, parasite or virus in culture; format: cell-based
Method: as §2

[1] = test system: NDM-1 Klebsiella pneumoniae; experiment: microbe, parasite or virus in culture; format: cell-based; settings: NDM-1
Method: as §2

MDR A. baumannii 14B001 = experiment: microbe, parasite or virus in culture; format: cell-based, Acinetobacter baumannii; settings: for TP4-3 and meropenem combined MIC: MIC of each agent in combination
Method: as §1

MDR A. baumannii 1702 = experiment: microbe, parasite or virus in culture; format: cell-based, Acinetobacter baumannii; settings: for TP4-3 and meropenem combined MIC: MIC of each agent in combination
Method: as §1

MDR A. baumannii 2982 = experiment: microbe, parasite or virus in culture; format: cell-based, Acinetobacter baumannii; settings: for TP4-3 and meropenem combined MIC: MIC of each agent in combination
Method: as §1

MDR A. baumannii 921 = experiment: microbe, parasite or virus in culture; format: cell-based, Acinetobacter baumannii; settings: for TP4-3 and meropenem combined MIC: MIC of each agent in combination
Method: as §1

MDR A. baumannii 2962 = experiment: microbe, parasite or virus in culture; format: cell-based, Acinetobacter baumannii; settings: for TP4-3 and meropenem combined MIC: MIC of each agent in combination
Method: as §1

MDR A. baumannii 1607 = experiment: microbe, parasite or virus in culture; format: cell-based, Acinetobacter baumannii; settings: for TP4-3 and meropenem combined MIC: MIC of each agent in combination
Method: as §1

MDR A. baumannii 1019 = experiment: microbe, parasite or virus in culture; format: cell-based, Acinetobacter baumannii; settings: for TP4-3 and meropenem combined MIC: MIC of each agent in combination
Method: as §1

NDM1 K. pneumoniae = experiment: microbe, parasite or virus in culture; format: cell-based, Klebsiella pneumoniae; settings: for TP4-3 and meropenem combined MIC: MIC of each agent in combination
[2] = test system: CLP-induced polymicrobial sepsis in C57BL/6 female mice; experiment: CLP-induced polymicrobial sepsis model; format: in vivo
Method: (i) CLP surgery. Cecal ligation and puncture surgery was performed to induce polymicrobial sepsis according to a previously described method ([37]). Female C57BL/6 mice at 6 to 8 weeks of age (weight = 18 to 22 g) were anesthetized by intraperitoneal administration of Zoletil (50 mg/kg). Then, a 1-cm incision was made at the abdomen to expose the cecum. The CLP procedure was performed with a 23-G needle. […] A sham group was subjected to abdomen incision without CLP and treated with saline by intraperitoneal injection. After the treatments, percent survival was used as a measure of test-candidate efficacy ([37]).
(ii) Estimation of bacterial load, cytokine expression, and toxicity profile after CLP and treatment. […] Blood samples were taken in collection tubes. Peritoneal fluid was collected in a sterilized 1.5-mL centrifuge tube. Organs, including the liver, lung, spleen, and kidney, were harvested, weighed, and placed in 1-mL sterile PBS for homogenization with a tissue lyzer (Tissuelyzer II, Qiagen, Dusseldorf, Germany). The homogenates, blood, and peritoneal fluid were diluted serially and plated on Mueller-Hinton broth agar plates. The plates were incubated at 37°C overnight. Each tissue was evaluated by measuring CFU/g ([37]).
To evaluate kidney and liver function, blood samples (n = 5 per group) were tested for ALT (GPT), AST (GOT), CRE, and BUN using a dry-chemistry analyzer as described above. Mouse serum was extracted to assess (n = 5 per group) expression of cytokines (Thermo Fisher Scientific, Waltham, MA) as a measure of inflammatory response ([37]).

[3] = read-out: Single drug treatment MIC
[4] = 24 h, ELISA, compared to saline-treated group
[5] = 72 h compared to 24 h after treatment

Q: Which “TP4-3 and meropenem combined MIC” value (MDR A. baumannii 1033; TP4-3 and D) does the source give for `CC[C@H](C)[C@H](NC(=O)[C@@H](NC(=O)[C@@H](N)Cc1ccccc1)[C@@H](C)CC)C(=O)N[C@]1(C)CCCC=CCCC[C@](C)(C(=O)NCC(=O)N[C@@H](CC(C)C)C(=O)N[C@@H](Cc2ccccc2)C(=O)N[C@@H](CCCCN)C(=O)N[C@@H](CCCCN)C(=O)N[C@@H](CCCCN)C(=O)N[C@@H](C)C(=O)NCC(=O)N[C@@H](C)C(=O)N[C@]2(C)CCCC=CCCC[C@](C)(C(=O)N[C@H](C(=O)N[C@@H](CCCCN)C(=O)N[C@@H](CCCCN)C(=O)O)[C@@H](C)CC)NC(=O)[C@H](CCCCN)NC(=O)[C@H](CCCCN)NC(=O)[C@H](CCCCN)NC2=O)NC(=O)[C@H](CO)NC(=O)[C@H](CCCCN)NC(=O)[C@H](CCCCN)NC1=O` [TP4-3] (H-FII[R5]KKS[R5]GLFKKKAGA[R5]KKK[R5]IKK-OH; staple 4-8, 18-22; N-terminus and C-terminus assumed) here?
A: The value was 3.13 µM.

Q: What about the “TP4-3 and meropenem combined MIC” value (MDR A. baumannii 1033; TP4-3 and M) of the same molecule?
A: The value was 3.13 µM.

Q: And the MIC (MDR A. baumannii 1033; [3])?
A: Its MIC is 12.5 µM.

Q: And the “TP4-3 and meropenem combined MIC” value (P. aeruginosae; TP4-3 and D)?
A: Its value is 6.25 µM.

Q: And the “TP4-3 and meropenem combined MIC” value (P. aeruginosae; TP4-3 and M)?
A: Its value is 0.78 µM.

Q: And the MIC (P. aeruginosae; [3])?
A: Its MIC is 25 µM (≈ 72.3 µg/mL).

Q: What about the “inhibition of biofilm (biomass) formation” value (A. baumannii biofilm) of the same molecule?
A: Its value is “substantial inhibition of biomass formation”.

Q: What about the MBC (Pseudomonas aeruginosa; read-out: MBC) of the same molecule?
A: Its MBC is 25 µM (≈ 72.3 µg/mL).

Q: And the MIC (Pseudomonas aeruginosa; read-out: MIC)?
A: Its MIC is 25 µM (≈ 72.3 µg/mL).

Q: What about the MBC (Escherichia coli) of the same molecule?
A: Its MBC is 25 µM (≈ 72.3 µg/mL).

Q: What about the MIC (Escherichia coli) of the same molecule?
A: Its MIC is 25 µM (≈ 72.3 µg/mL).

Q: And the MBC [1]?
A: Its MBC is 25 µM (≈ 72.3 µg/mL).

Q: And the MIC [1]?
A: The MIC was 25 µM (≈ 72.3 µg/mL).

Q: And the MIC (MDR A. baumannii 14B001; MDR 14B001, read-out: Single drug treatment MIC)?
A: The MIC was 3.13 µM.

Q: What about the “TP4-3 and meropenem combined MIC” value (MDR A. baumannii 14B001; TP4-3 and D) of the same molecule?
A: The value was 3.13 µM.

Q: What about the “TP4-3 and meropenem combined MIC” value (MDR A. baumannii 14B001; TP4-3 and M) of the same molecule?
A: Its value is 0.09 µM.

Q: What about the MIC (MDR A. baumannii 1702; MDR 1702, read-out: Single drug treatment MIC) of the same molecule?
A: Its MIC is 6.25 µM.

Q: What about the “TP4-3 and meropenem combined MIC” value (MDR A. baumannii 1702; TP4-3 and D) of the same molecule?
A: Its value is 3.13 µM.

Q: What about the “TP4-3 and meropenem combined MIC” value (MDR A. baumannii 1702; TP4-3 and M) of the same molecule?
A: The value was 3.13 µM.

Q: And the MIC (MDR A. baumannii 2982; MDR 2982, read-out: Single drug treatment MIC)?
A: The MIC was 6.25 µM.

Q: And the “TP4-3 and meropenem combined MIC” value (MDR A. baumannii 2982; TP4-3 and D)?
A: The value was 3.13 µM.

Q: What about the “TP4-3 and meropenem combined MIC” value (MDR A. baumannii 2982; TP4-3 and M) of the same molecule?
A: The value was 3.13 µM.

Q: What about the MIC (MDR A. baumannii 921; MDR 921, read-out: Single drug treatment MIC) of the same molecule?
A: Its MIC is 6.25 µM.

Q: And the “TP4-3 and meropenem combined MIC” value (MDR A. baumannii 921; TP4-3 and D)?
A: The value was 3.13 µM.

Q: What about the “TP4-3 and meropenem combined MIC” value (MDR A. baumannii 921; TP4-3 and M) of the same molecule?
A: The value was 0.78 µM.

Q: And the MIC (MDR A. baumannii 2962; MDR 2962, read-out: Single drug treatment MIC)?
A: The MIC was 6.25 µM.

Q: And the “TP4-3 and meropenem combined MIC” value (MDR A. baumannii 2962; TP4-3 and D)?
A: The value was 3.13 µM.

Q: And the “TP4-3 and meropenem combined MIC” value (MDR A. baumannii 2962; TP4-3 and M)?
A: The value was 3.13 µM.

Q: What about the MIC (MDR A. baumannii 1607; MDR 1607, read-out: Single drug treatment MIC) of the same molecule?
A: The MIC was 6.25 µM.

Q: What about the “TP4-3 and meropenem combined MIC” value (MDR A. baumannii 1607; TP4-3 and D) of the same molecule?
A: Its value is 3.13 µM.

Q: And the “TP4-3 and meropenem combined MIC” value (MDR A. baumannii 1607; TP4-3 and M)?
A: Its value is 3.13 µM.

Q: And the MIC (MDR A. baumannii 1019; MDR 1019, read-out: Single drug treatment MIC)?
A: Its MIC is 12.5 µM.

Q: What about the “TP4-3 and meropenem combined MIC” value (MDR A. baumannii 1019; TP4-3 and D) of the same molecule?
A: The value was 3.13 µM.

Q: And the “TP4-3 and meropenem combined MIC” value (MDR A. baumannii 1019; TP4-3 and M)?
A: Its value is 3.13 µM.

Q: What about the “TP4-3 and meropenem combined MIC” value (NDM1 K. pneumoniae; TP4-3 and D) of the same molecule?
A: Its value is 6.25 µM.

Q: And the “TP4-3 and meropenem combined MIC” value (NDM1 K. pneumoniae; TP4-3 and M)?
A: The value was 6.25 µM.

Q: And the MIC (NDM1 K. pneumoniae; NDM1, read-out: Single drug treatment MIC)?
A: Its MIC is 25 µM (≈ 72.3 µg/mL).

Q: What about the “serum IL-6 level” value [2, 4] of the same molecule?
A: The value was “lower levels”.

Q: What about the “serum IL-10 level” value [2, 4] of the same molecule?
A: Its value is “higher level”.

Q: What about the “serum IL-12 level” value [2, 4] of the same molecule?
A: The value was “no difference”.

Q: What about the “serum IL-18 level” value [2, 4] of the same molecule?
A: The value was “lower levels”.

Q: What about the “serum MCP-1 level” value [2, 4] of the same molecule?
A: The value was “lower levels”.

Q: And the “serum TNF-α level” value [2, 4]?
A: The value was “lower levels”.

Q: What about the “kidney (BUN, CRE) and liver function (GOT, GPT)” value ([2]; 24 h after CLP) of the same molecule?
A: The value was “significantly improved”.

Q: What about the “bacterial burden in peritoneal lavage fluid” value [2, 5] of the same molecule?
A: Its value is “no significant difference”.

Q: And the “decrease of bacterial burden, blood” value [2, 5]?
A: The value was 54%.

Q: And the “decrease of bacterial burden, kidney” value [2, 5]?
A: The value was 51%.

Q: What about the “decrease of bacterial burden, liver” value [2, 5] of the same molecule?
A: Its value is 61%.

Q: And the “decrease of bacterial burden, lung” value [2, 5]?
A: Its value is 51%.

Q: And the “decrease of bacterial burden, spleen” value [2, 5]?
A: The value was 55%.

Q: And the “bacterial burdens in the blood, lung, and liver” value ([2]; 72 h post-treatment, compared to CLP + saline)?
A: The value was “lower bacterial burdens”.

Q: And the survival ([2]; 7 days post-operation, i.p. 30 min after CLP, TP4-3 9 mg/kg, meropenem 10 mg/kg, combination 9 mg/kg TP4-3 and 5 mg/kg meropenem, CLP + saline 12.5%)?
A: The survival was 87.5%.
